{"source": "PubChem BioAssay AID2321", "about": "(Johns Hopkins Ion Channel Center, 2010)", "note": "Activity calls are given as the source filed them. How the calls were made is not given here.", "data": [{"biological_target": "Voltage-gated inwardly rectifying potassium channel KCNH2 (Homo sapiens) (UniProt Q12809)", "sequence (Q12809 whole entry, looked up)": "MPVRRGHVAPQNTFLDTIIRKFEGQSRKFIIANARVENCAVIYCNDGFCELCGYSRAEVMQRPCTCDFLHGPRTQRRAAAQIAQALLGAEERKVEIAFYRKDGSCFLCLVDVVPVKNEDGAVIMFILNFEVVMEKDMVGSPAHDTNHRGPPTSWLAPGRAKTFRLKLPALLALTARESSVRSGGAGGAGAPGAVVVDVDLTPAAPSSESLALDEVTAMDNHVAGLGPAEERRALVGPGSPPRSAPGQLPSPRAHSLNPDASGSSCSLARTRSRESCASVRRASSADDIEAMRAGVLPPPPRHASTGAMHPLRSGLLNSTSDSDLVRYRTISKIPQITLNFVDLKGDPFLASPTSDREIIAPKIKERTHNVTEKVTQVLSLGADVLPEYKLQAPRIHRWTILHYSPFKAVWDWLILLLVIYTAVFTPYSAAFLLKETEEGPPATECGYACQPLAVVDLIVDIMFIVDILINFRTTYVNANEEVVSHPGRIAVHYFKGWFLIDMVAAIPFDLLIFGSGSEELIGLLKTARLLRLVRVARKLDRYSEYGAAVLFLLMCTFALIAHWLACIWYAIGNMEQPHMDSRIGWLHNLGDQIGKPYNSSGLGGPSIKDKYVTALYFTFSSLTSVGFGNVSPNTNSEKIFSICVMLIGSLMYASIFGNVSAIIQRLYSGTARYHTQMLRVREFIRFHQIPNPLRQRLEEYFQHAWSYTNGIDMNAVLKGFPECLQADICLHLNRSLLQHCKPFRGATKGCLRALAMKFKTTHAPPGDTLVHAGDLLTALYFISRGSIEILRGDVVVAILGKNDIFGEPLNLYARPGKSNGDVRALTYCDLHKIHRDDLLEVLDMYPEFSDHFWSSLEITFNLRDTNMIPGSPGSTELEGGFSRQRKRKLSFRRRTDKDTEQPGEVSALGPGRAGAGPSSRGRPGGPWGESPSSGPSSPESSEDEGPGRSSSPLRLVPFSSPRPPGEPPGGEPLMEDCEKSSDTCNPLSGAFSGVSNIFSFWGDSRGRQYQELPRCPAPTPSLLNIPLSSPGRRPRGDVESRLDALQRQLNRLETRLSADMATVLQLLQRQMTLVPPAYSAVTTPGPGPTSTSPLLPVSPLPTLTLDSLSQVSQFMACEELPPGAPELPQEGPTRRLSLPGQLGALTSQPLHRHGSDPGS", "assay": "relief of dofetilide hERG inhibition by whole-cell recording – manual patch clamp, HEK293-hERG, orthogonal assay, late-stage follow-up (AID 2321)", "settings": "dofetilide block rescue, at 10 µM, active compounds read high", "values": [{"smiles": "CN(c1ccccc1)c1nc2cc(Cl)ccc2o1", "percent unblocked": "0% (inactive)"}, {"smiles": "O=C(COc1ccc2ccccc2c1Br)Nc1cccnc1", "percent unblocked": "0% (inactive)"}, {"smiles": "O=C(O)c1cc(Cl)ccc1Nc1nc2cc(Cl)ccc2o1", "percent unblocked": "0% (inactive)"}, {"smiles": "Cc1ccc(C(=O)Nc2nc3ccccc3c(=O)s2)cc1", "percent unblocked": "0% (inactive)"}, {"smiles": "O=C(O)c1ccc(Nc2nc3cc(Cl)ccc3o2)cc1", "percent unblocked": "0% (inactive)"}, {"smiles": "COc1ccc(OC)c(NC(=S)NC(=O)c2ccc(Br)o2)c1", "percent unblocked": "0% (inactive)"}, {"smiles": "O=C(O)c1ccccc1Nc1nc2cc(Cl)ccc2o1", "percent unblocked": "0% (inactive)"}, {"smiles": "COc1ccccc1NC(=S)NC(=O)c1ccc(-c2ccc(Cl)cc2)o1", "percent unblocked": "0% (inactive)"}, {"smiles": "Clc1ccc2oc(Nc3ccccn3)nc2c1", "percent unblocked": "0% (inactive)"}]}]}
